Experimental data from patent publication US20180147177A1, “Antibacterial Compositions Comprising Copper Oxo-Hydroxide Nanoparticles and Their Uses as Biocidal Agents” (Medical Research Council, priority 2015, published 2018).

Key:
[1] = test system: Human dermal fibroblast cells (cell line CCD-25SK); assay: Cell proliferation of skin fibroblasts (IncuCyte confluence AUC); format: cell-based; conditions: CCD-25Sk skin fibroblasts, 48 hours
Experimental: CuCl2 and AgNO3 were also tested in parallel as positive controls. Percentage of cell confluence was determined experimentally using an IncuCyte Zoom and plotted overtime to determine the area under the curve (AUC) for each concentration tested. Cell proliferation was used as an indication for cell toxicity and was determined by normalising the AUC of cells exposed to the testing compounds against those of cells growing at normal rates (control).

[2] = test system: Escherichia coli NCTC11100; assay: Bacterial growth inhibition assay (turbidimetric, OD 595 nm, HMM medium); format: cell-based; conditions: E. coli, no copper
Experimental: Antimicrobial activity was assessed through determination of bacterial growth inhibition in the presence of copper compounds. A turbidimetric assay was used to follow bacterial concentration over time as this is proportional to optical density (OD at 595 nm) in liquid medium, allowing an easy screening of bacterial growth over time. Escherichia coli NCTC11100 and Staphylococcus aureus RN4220 were the tested microorganisms in this assay. Stock bacterial colonies were kept in cultivated in agar plates and on the day before the experiment, one colony was transferred into 10 ml of HMM liquid medium and grown overnight at 30° C. under constant shaking (80 rpm) in an incubator. […] Copper stock solutions (refer to section 2.1) were sequentially diluted in HMM to achieve typical concentrations between 0.8 and 100 ppm Cu in a volume of 0.1 ml. Next, 0.1 ml of bacterial culture was added and incubated with copper at 30° C. under constant agitation (80 rpm). Final copper concentrations in the assay ranged between 0.4 and 50 ppm, and OD was measured every hour for a typical period of 7-8 hours to follow bacterial growth. OD background, i.e. OD absorbance not caused by bacteria, was determined to remove readout interference from copper and broth. Growth inhibition was calculated as follows: […]

E. coli MC1061 = assay: Minimum bactericidal concentration (liquid incubation, then agar plates); format: cell-based; conditions: n = 1
B. subtilis BR151 = assay: as above; format: cell-based; conditions: n = 1
P. aeruginosa = assay: as above; format: cell-based; conditions: n = 1
[3] = Copper dispersibility in MOPS buffer pH 7.4; format: physicochemical; conditions: MOPS buffer pH 7.4±0.2, copper added up to 500 ppm
Experimental: Stock copper materials were diluted in 50 mM 3-(N-morpholino)propanesulfonic acid (MOPS) buffer at pH 7.4±0.2. Final copper concentrations varied between 10 and 500 ppm. Microparticulate copper was removed by centrifugation at 16000 g for 5 minutes. Total copper and supernatant (i.e. disperse fraction) were analysed by Inductively Coupled Plasma-Optical Emission Spectroscopy (ICP-OES) as described in section 2.4.1.

S. aureus RN4220 = assay: Minimum bactericidal concentration (liquid incubation, then agar plates); format: cell-based; conditions: n = 1
[4] = Copper release from a gel matrix (HEC gel release assay); format: physicochemical; conditions: HEC gel with 250 ppm Cu, bicarbonate solution pH 7, over 24 hours
Experimental: This assay consisted of exposing the copper-containing HEC—with specific surface area (7.1 cm^2)—to a bicarbonate buffered solution at pH 7.0±0.2, following copper concentration over time.
10 g of the gel was poured into a 50 ml falcon tube and let settle down overnight. 10 ml of a 50 mM NaHCO3 solution at pH 7±0.2 were carefully transferred on the surface of the gel. Samples were collected over 24 hours and copper concentration in the overhead solution was determined by ICP-OES (see section 2.4.1.).

V. fischeri = assay: Minimum bactericidal concentration (liquid incubation, then agar plates); format: cell-based; conditions: n = 1

For `O=[N+]([O-])[O-].[Ag+]` [AgNO3], the “concentration from which cell proliferation decreased” value [1] was at least 10000 ng/mL.

In the case of `O.O.O=C([O-])CN(CCN(CC(=O)[O-])CC(=O)O)CC(=O)O.[Na+].[Na+]` [EDTA, disodium ethylenediaminetetraacetate (EDTA) di-hydrate], the “antibacterial effect of the complexing agent alone (in words)” value [2] is reported as “had antibacterial effect”.

Work on `O.O.[Cl][Cu][Cl]` [CuCl2, CuCl2.2H2O] yielded an MBC (E. coli MC1061; 4 h incubation) of 100 ppm Cu, an MBC (E. coli MC1061; 24 h incubation) of 50 ppm Cu and an MBC (E. coli MC1061; 48 h incubation) of 10 ppm Cu. It also gave an MBC (E. coli MC1061; 72 h incubation) of 50 ppm Cu, an MBC (E. coli MC1061; 96 h incubation) of 50 ppm Cu and an MBC (B. subtilis BR151; 4 h incubation) of over 100 ppm Cu. It also gave an MBC (B. subtilis BR151; 24 h incubation) of over 100 ppm Cu, an MBC (B. subtilis BR151; 48 h incubation) of over 100 ppm Cu and an MBC (B. subtilis BR151; 72 h incubation) of over 100 ppm Cu. The MBC (B. subtilis BR151; 96 h incubation) was over 100 ppm Cu, the “concentration from which cell proliferation decreased” value [1] was at least 50000 ng/mL and the MBC (P. aeruginosa; 4 h incubation) was 100 ppm Cu. The MBC (P. aeruginosa; 24 h incubation) was 100 ppm Cu, the MBC (P. aeruginosa; 48 h incubation) was 100 ppm Cu and the MBC (P. aeruginosa; 72 h incubation) was 100 ppm Cu. The MBC (P. aeruginosa; 96 h incubation) was 100 ppm Cu, the “dispersible fraction (maximum)” value [3] was “ca. 10 ppm of Cu” and the MBC (S. aureus RN4220; 4 h incubation) was 100 ppm Cu. It also gave an MBC (S. aureus RN4220; 24 h incubation) of 50 ppm Cu, an MBC (S. aureus RN4220; 48 h incubation) of 50 ppm Cu and an MBC (S. aureus RN4220; 72 h incubation) of 50 ppm Cu. For the same molecule, the MBC (S. aureus RN4220; 96 h incubation) was 50 ppm Cu, the “Cu released from HEC matrix” value [4] was at most 10 ppm and the MBC (V. fischeri; 4 h incubation) was 100 ppm Cu. For the same molecule, the MBC (V. fischeri; 24 h incubation) was 100 ppm Cu, the MBC (V. fischeri; 48 h incubation) was over 100 ppm Cu and the MBC (V. fischeri; 72 h incubation) was over 100 ppm Cu. The MBC (V. fischeri; 96 h incubation) was over 100 ppm Cu.
